IC50 data for 30 compounds are collected here from patent US20090018134A1, “Compounds - 945” (AstraZeneca AB, priority 2007, published 2009).

Structures are written as SMILES.

For this assay, the target named is T1, mTOR (Homo sapiens, UniProt P42345).
T1 construct: FLAG; made in house
Description: In Vitro mTOR Kinase Assay (Echo), Test (a)(ii). The assay is classed as biochemical. To be noted: table of enzyme assay Test (a)(ii); read-out: Test (a)(ii) IC50. In outline:
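Inhibition expressed as IC50 from an AlphaScreen read-out: phospho-T389 p70 S6K antibody plus streptavidin donor/protein A acceptor beads, left overnight in the dark. The kinase reaction ran 2 h at room temperature, then was stopped with EDTA. Enzyme: FLAG-purified mTOR 1362-2549 fragment from stable HEK293 cells.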

T1 sequence (P42345 1362-2549): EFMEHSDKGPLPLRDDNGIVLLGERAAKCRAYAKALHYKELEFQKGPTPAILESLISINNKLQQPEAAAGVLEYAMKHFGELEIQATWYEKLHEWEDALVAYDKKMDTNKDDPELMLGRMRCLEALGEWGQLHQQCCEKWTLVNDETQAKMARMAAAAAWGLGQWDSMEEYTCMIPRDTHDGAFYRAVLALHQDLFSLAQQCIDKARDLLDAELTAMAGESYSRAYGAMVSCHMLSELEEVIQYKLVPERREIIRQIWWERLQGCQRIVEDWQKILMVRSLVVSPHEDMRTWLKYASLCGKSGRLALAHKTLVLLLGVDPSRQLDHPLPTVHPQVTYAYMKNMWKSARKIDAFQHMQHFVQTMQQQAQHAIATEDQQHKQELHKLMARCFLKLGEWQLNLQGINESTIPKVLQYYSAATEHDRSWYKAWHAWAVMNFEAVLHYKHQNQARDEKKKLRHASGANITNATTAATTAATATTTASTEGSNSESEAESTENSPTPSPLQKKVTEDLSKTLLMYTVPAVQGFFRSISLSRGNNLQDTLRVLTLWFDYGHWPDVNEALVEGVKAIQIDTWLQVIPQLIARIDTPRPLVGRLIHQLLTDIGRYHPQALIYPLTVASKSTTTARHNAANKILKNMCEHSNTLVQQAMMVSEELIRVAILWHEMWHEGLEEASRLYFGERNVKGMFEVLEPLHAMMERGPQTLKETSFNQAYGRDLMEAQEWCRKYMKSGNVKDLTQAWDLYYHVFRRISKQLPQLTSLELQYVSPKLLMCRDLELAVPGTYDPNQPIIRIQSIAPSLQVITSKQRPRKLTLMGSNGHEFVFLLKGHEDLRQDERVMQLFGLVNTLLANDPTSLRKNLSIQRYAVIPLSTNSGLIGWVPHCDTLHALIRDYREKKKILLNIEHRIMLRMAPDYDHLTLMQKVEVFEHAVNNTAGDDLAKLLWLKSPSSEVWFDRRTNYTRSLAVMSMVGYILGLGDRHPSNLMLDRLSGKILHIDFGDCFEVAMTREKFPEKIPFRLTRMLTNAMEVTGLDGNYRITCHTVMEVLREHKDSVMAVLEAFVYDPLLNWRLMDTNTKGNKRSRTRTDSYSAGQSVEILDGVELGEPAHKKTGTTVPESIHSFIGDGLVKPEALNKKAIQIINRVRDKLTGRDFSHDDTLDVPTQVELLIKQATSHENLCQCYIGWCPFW

Consider `C[C@H]1COCCN1c1cc(C2(S(=O)(=O)C3CC3)CC2)nc(-c2ccc(NC(=S)NC3CC3)cc2)n1` [Example 37b, 3-cyclopropyl-1-[4-[4-(1-cyclopropylsulfonylcyclopropyl)-6-[(3S)-3-methylmorpholin-4-yl]pyrimidin-2-yl]phenyl]thiourea], for which the IC50 worked out at 12.4 nM.
Turning to `C[C@H]1COCCN1c1cc(C2(S(=O)(=O)CCCO)CC2)nc(-c2ccc(NC(=S)NC3CCC3)cc2)n1` [Example 37d, 3-cyclobutyl-1-[4-[4-[1-(3-hydroxypropylsulfonyl)cyclopro-pyl]-6-[(3S)-3-methylmorpholin-4-yl]pyrimidin-2-yl]phenyl]thiourea], the IC50 is 4.39 nM.
In the case of `C[C@H]1COCCN1c1cc(C2(S(=O)(=O)CCCO)CC2)nc(-c2ccc(NC(=S)NCCC#N)cc2)n1` [Example 37e, 3-(2-cyanoethyl)-1-[4-[4-[1-(3-hydroxypropylsulfonyl)cyclopro-pyl]-6-[(3S)-3-methylmorpholin-4-yl]pyrimidin-2-yl]phenyl]thiourea] it was 4.9 nM; in that of `CNC(=S)Nc1ccc(-c2nc(N3CCOC[C@@H]3C)cc(C3(S(=O)(=O)CCCO)CC3)n2)cc1` [Example 37g, 1-[4-[4-[1-(3-hydroxypropylsulfonyl)cyclopro-pyl]-6-[(3S)-3-methylmorpholin-4-yl]pyrimidin-2-yl]phenyl]-3-methylthiourea], 17.9 nM.
Then `C[C@H]1COCCN1c1cc(C2(S(=O)(=O)CCCO)CC2)nc(-c2ccc(NC(=S)Nc3cnn(C)c3)cc2)n1` [Example 37j, 1-[4-[4-[1-(3-hydroxypropylsulfonyl)cyclopro-pyl]-6-[(3S)-3-methylmorpholin-4-yl]pyrimidin-2-yl]phenyl]-3-(1-methylpyrazol-4-yl)thiourea], with 30.9 nM; and `CCCNC(=S)Nc1ccc(-c2nc(N3CCOC[C@@H]3C)cc(C3(S(=O)(=O)CCCO)CC3)n2)cc1` [Example 37l, 3-[4-[4-[1-(3-hydroxypropylsulfonyl)cyclopro-pyl]-6-[(3S)-3-methylmorpholin-4-yl]pyrimidin-2-yl]phenyl]-1-propylthiourea], with 32 nM.
Then `C[C@H]1COCCN1c1cc(C2(S(C)(=O)=O)CC2)nc(-c2ccc(NC(=S)NCCCO)cc2)n1` [Example 37m, 3-(3-hydroxypropyl)-1-[4-[4-[(3S)-3-methylmorpholin-4-yl]-6-(1-methylsulfonylcyclopropyl)pyri-midin-2-yl]phenyl]thiourea], with 50.6 nM; and `CCCNC(=S)Nc1ccc(-c2nc(N3CCOC[C@@H]3C)cc(C3(S(C)(=O)=O)CC3)n2)cc1` [Example 37n, 1-[4-[4-[(3S)-3-methylmorpholin-4-yl]-6-(1-methylsulfonylcyclopropyl)pyri-midin-2-yl]phenyl]-3-propylthiourea], with 39.3 nM.
For the compound `C[C@H]1COCCN1c1cc(C2(S(C)(=O)=O)CC2)nc(-c2ccc(NC(=S)Nc3cnn(C)c3)cc2)n1` [Example 37o, 1-[4-[4-[(3S)-3-methylmorpholin-4-yl]-6-(1-methylsulfonylcyclopropyl)pyri-midin-2-yl]phenyl]-3-(1-methylpyrazol-4-yl)thiourea], the IC50 is 33 nM.
In the case of `CNC(=S)Nc1ccc(-c2nc(N3CCOC[C@@H]3C)cc(C3(S(=O)(=O)c4nc(C)cs4)CC3)n2)cc1` [Example 37p, 3-methyl-1-[4-[4-[(3S)-3-methylmorpholin-4-yl]-6-[1-[(4-methyl-1,3-thiazol-2-yl)sulfonyl]cyclopropyl]pyri-midin-2-yl]phenyl]thiourea] it was 5.34 nM; in that of `Cc1csc(S(=O)(=O)C2(c3cc(N4CCOC[C@@H]4C)nc(-c4ccc(NC(=S)NC5CC5)cc4)n3)CC2)n1` [Example 37q, 3-cyclopropyl-1-[4-[4-[(3S)-3-methylmorpholin-4-yl]-6-[1-[(4-methyl-1,3-thiazol-2-yl)sulfonyl]cyclopropyl]pyri-midin-2-yl]phenyl]thiourea], 2.94 nM; in that of `Cc1csc(S(=O)(=O)C2(c3cc(N4CCOC[C@@H]4C)nc(-c4ccc(NC(=S)NCCO)cc4)n3)CC2)n1` [Example 37r, 3-(2-hydroxyethyl)-1-[4-[4-[(3S)-3-methylmorpholin-4-yl]-6-[1-[(4-methyl-1,3-thiazol-2-yl)sulfonyl]cyclopropyl]pyri-midin-2-yl]phenyl]thiourea], 1.62 nM.
Then `CNC(=S)Nc1ccc(-c2nc(N3CCOC[C@@H]3C)cc(C3(S(=O)(=O)c4ccc(F)cc4)CC3)n2)cc1` [Example 37s, 1-[4-[4-[1-(4-fluorophenyl)sulfonylcyclopropyl]-6-[(3S)-3-methylmorpholin-4-yl]pyrimidin-2-yl]phenyl]-3-methylthiourea], with 7.56 nM; and `C[C@H]1COCCN1c1cc(C2(S(=O)(=O)c3ccc(F)cc3)CC2)nc(-c2ccc(NC(=S)NC3CC3)cc2)n1` [Example 37t, 3-cyclopropyl-1-[4-[4-[1-(4-fluorophenyl)sulfonylcyclopropyl]-6-[(3S)-3-methylmorpholin-4-yl]pyrimidin-2-yl]phenyl]thiourea], with 8.89 nM; and `C[C@H]1COCCN1c1cc(C2(S(=O)(=O)c3ccc(F)cc3)CC2)nc(-c2ccc(NC(=S)NCCO)cc2)n1` [Example 37u, 1-[4-[4-[1-(4-fluorophenyl)sulfonylcyclopropyl]-6-[(3S)-3-methylmorpholin-4-yl]pyrimidin-2-yl]phenyl]-3-(2-hydroxyethyl)thiourea], with 0.395 nM.
In the case of `C[C@H]1COCCN1c1cc(C2(S(=O)(=O)c3ccccc3)CC2)nc(-c2ccc(NC(=S)NC3CC3)cc2)n1` [Example 37v, 1-[4-[4-[1-(benzenesulfonyl)cyclopropyl]-6-[(3S)-3-methylmorpholin-4-yl]pyrimidin-2-yl]phenyl]-3-cyclopropylthiourea] it was 5.49 nM.
With `C[C@H]1COCCN1c1cc(C2(S(=O)(=O)c3ccccc3)CC2)nc(-c2ccc(NC(=S)Nc3cnn(C)c3)cc2)n1` [Example 37w, 1-[4-[4-[1-(benzenesulfonyl)cyclopropyl]-6-[(3S)-3-methylmorpholin-4-yl]pyrimidin-2-yl]phenyl]-3-(1-methylpyrazol-4-yl)thiourea], the IC50 is 1.37 nM.
As to `C[C@H]1COCCN1c1cc(C2(S(=O)(=O)c3ccccc3)CC2)nc(-c2ccc(NC(=S)NCCCO)cc2)n1` [Example 37x, 1-[4-[4-[1-(benzenesulfonyl)cyclopropyl]-6-[(3S)-3-methylmorpholin-4-yl]pyrimidin-2-yl]phenyl]-3-(3-hydroxypropyl)thiourea], the IC50 was 9.44 nM.
Then `CCNC(=S)Nc1ccc(-c2nc(N3CCOC[C@@H]3C)cc(C3(S(=O)(=O)c4ccccc4)CC3)n2)cc1` [Example 37z, 3-[4-[4-[1-(benzenesulfonyl)cyclopropyl]-6-[(3S)-3-methylmorpholin-4-yl]pyrimidin-2-yl]phenyl]-1-ethylthiourea], with 4.81 nM; and `Cc1nnc(S(=O)(=O)C2(c3cc(N4CCOC[C@@H]4C)nc(-c4ccc(NC(=O)NC5CC5)cc4)n3)CC2)s1` [Example 38, 3-Cyclopropyl-1-[4-[4-[(3S)-3-methylmorpholin-4-yl]-6-[1-[(5-methyl-1,3,4-thiadiazol-2-yl)sulfonyl]cyclopropyl]pyrimidin-2-yl]phenyl]urea], with 1.31 nM.
With `CNC(=O)Nc1ccc(-c2nc(N3CCOC[C@@H]3C)cc(C3(S(=O)(=O)c4nnc(C)s4)CC3)n2)cc1` [Example 38a], the IC50 was 0.918 nM.
As for `C[C@H]1COCCN1c1cc(C2(S(=O)(=O)c3nccs3)CC2)nc(-c2ccc(NC(=O)NC3CC3)cc2)n1` [Example 39, 3-Cyclopropyl-1-[4-[4-[(3S)-3-methylmorpholin-4-yl]-6-[1-(1,3-thiazol-2-ylsulfonyl)cyclopropyl]pyrimidin-2-yl]phenyl]urea], the half-inhibitory concentration (IC50) turned out to be 0.351 nM.
As for `CNC(=O)Nc1ccc(-c2nc(N3CCOC[C@@H]3C)cc(C3(S(=O)(=O)c4nccs4)CC3)n2)cc1` [Example 39a], the IC50 amounted to 0.502 nM.
In the case of `CNC(=O)Nc1ccc(-c2nc(N3CCOC[C@@H]3C)cc(C3(S(=O)(=O)c4ncc[nH]4)CC3)n2)cc1` [Example 40] it was 4.36 nM.
Regarding `C[C@H]1COCCN1c1cc(C2(S(C)(=O)=O)CC2)nc(-c2ccc(NC(=S)NCCC#N)cc2)n1` [Example 41, 3-(2-Cyanoethyl)-1-[4-[4-[(3S)-3-methylmorpholin-4-yl]-6-(1-methylsulfonylcyclopropyl)pyrimidin-2-yl]phenyl]thiourea], the IC50 is 30.8 nM.
Consider `Cc1csc(S(=O)(=O)C2(c3cc(N4CCOCC4)nc(-c4ccc(NC(=O)NC5CC5)cc4)n3)CC2)n1` [Example 42, 3-Cyclopropyl-1-[4-[4-[1-[(4-methyl-1,3-thiazol-2-yl)sulfonyl]cyclopropyl]-6-morpholin-4-ylpyrimidin-2-yl]phenyl]urea], for which the IC50 stood at 0.705 nM.
In the case of `Cc1csc(S(=O)(=O)C2(c3cc(N4CCOCC4)nc(-c4ccc(NC(=O)NCCO)cc4)n3)CC2)n1` [Example 42a, 3-(2-hydroxyethyl)-1-[4-[4-[1-[(4-methyl-1,3-thiazol-2-yl)sulfonyl]cyclopropyl]-6-morpholin-4-ylpyrimidin-2-yl]phenyl]urea] it was 2.61 nM; in that of `Cc1csc(S(=O)(=O)C2(c3cc(N4CCOCC4)nc(-c4ccc(NC(=O)Nc5cnn(C)c5)cc4)n3)CC2)n1` [Example 42b, 3-(1-methylpyrazol-4-yl)-1-[4-[4-[1-[(4-methyl-1,3-thiazol-2-yl)sulfonyl]cyclopropyl]-6-morpholin-4-ylpyrimidin-2-yl]phenyl]urea], 5.35 nM; in that of `CNC(=O)Nc1ccc(-c2nc(N3CCOCC3)cc(C3(S(=O)(=O)c4nc(C)cs4)CC3)n2)cc1` [Example 42c, 3-methyl-1-[4-[4-[1-[(4-methyl-1,3-thiazol-2-yl)sulfonyl]cyclopropyl]-6-morpholin-4-ylpyrimidin-2-yl]phenyl]urea], 3.6 nM.
For the compound `Cc1csc(S(=O)(=O)C2(c3cc(N4CCOCC4)nc(-c4ccc(NC(=O)NC5CCC5)cc4)n3)CC2)n1` [Example 42e, 3-cyclobutyl-1-[4-[4-[1-[(4-methyl-1,3-thiazol-2-yl)sulfonyl]cyclopropyl]-6-morpholin-4-ylpyrimidin-2-yl]phenyl]urea], the IC50 was determined as 2.57 nM.

One may read the IC50 as the point on the concentration scale where inhibition reaches its midpoint.
